In patent US9096548B2, “Pyrazine amide compounds” (Boehringer Ingelheim International GmbH, priority 2013, dated 2015) one finds IC50 data, which are given here for 29 molecules.

The target of the first test is T1, ENaC (Epithelial Sodium Channel) (Mus musculus, UniProt Q61180+Q9WU38+Q9WU39).
T1 construct: Mouse kidney M−1 cells were cultivated in DMEM; endogenous in cells; host or cells: Mouse kidney M-1 cells, cultivated with dexamethasone on transwell filters
T1 sequence (Q61180 1-699): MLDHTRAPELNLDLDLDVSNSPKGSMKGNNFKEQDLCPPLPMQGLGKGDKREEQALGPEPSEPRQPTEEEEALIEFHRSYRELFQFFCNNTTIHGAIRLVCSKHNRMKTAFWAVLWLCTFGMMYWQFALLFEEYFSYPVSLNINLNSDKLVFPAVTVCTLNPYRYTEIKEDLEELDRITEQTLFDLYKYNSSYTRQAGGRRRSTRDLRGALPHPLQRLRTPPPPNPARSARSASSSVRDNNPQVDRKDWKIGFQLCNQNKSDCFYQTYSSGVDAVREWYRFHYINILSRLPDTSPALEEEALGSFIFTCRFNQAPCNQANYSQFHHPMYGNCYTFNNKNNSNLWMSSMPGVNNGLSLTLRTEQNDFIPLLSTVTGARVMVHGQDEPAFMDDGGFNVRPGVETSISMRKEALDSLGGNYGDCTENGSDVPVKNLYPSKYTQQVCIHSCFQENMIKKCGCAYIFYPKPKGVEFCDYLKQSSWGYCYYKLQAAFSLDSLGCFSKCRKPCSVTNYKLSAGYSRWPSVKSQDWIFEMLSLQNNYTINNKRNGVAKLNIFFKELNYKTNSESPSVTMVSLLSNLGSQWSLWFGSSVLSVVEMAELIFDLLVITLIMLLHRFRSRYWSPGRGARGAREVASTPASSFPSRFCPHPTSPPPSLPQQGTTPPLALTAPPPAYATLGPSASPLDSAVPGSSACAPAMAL
T1 sequence (Q9WU38 1-638): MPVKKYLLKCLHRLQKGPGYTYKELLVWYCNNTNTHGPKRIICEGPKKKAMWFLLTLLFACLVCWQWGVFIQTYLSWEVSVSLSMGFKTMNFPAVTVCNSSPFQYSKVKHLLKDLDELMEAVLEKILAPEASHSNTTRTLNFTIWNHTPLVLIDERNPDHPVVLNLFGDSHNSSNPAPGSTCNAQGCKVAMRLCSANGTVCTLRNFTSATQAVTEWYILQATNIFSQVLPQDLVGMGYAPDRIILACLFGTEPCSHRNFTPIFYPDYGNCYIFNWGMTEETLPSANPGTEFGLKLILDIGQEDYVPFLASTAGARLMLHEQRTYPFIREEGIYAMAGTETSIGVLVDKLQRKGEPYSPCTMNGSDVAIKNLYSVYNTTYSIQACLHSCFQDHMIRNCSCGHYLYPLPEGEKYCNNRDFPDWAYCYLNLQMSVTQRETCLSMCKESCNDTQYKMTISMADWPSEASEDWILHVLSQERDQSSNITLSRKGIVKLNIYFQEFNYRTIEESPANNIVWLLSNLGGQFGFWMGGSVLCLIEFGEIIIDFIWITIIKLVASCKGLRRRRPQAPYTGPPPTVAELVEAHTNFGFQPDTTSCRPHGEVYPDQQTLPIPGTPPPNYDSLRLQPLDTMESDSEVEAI
T1 sequence (Q9WU39 1-655): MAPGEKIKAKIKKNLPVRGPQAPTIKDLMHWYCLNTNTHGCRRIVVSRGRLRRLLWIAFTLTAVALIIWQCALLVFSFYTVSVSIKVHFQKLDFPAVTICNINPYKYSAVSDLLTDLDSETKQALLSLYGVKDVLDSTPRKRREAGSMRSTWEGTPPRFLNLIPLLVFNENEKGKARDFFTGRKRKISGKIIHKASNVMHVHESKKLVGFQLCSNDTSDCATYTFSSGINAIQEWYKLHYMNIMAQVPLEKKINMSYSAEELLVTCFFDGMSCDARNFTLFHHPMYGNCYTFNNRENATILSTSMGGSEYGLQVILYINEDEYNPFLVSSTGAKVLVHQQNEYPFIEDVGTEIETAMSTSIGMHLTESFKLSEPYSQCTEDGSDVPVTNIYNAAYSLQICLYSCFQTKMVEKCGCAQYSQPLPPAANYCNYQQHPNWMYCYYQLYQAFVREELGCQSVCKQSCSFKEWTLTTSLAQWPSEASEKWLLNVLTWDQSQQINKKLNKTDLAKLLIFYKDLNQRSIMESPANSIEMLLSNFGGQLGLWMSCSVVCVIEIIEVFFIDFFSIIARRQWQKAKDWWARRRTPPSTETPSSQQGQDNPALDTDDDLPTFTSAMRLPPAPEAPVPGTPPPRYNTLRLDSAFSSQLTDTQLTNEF
The test can be described thus: Ussing Chamber assay (short circuit current, amiloride sensitive I_SC). The class given is cell-based. To be noted: Ussing chamber, mouse kidney M-1 cells, short circuit current, compound added to the apical solution; read-out: IC50. The procedure, abridged:
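Mouse kidney M-1 cells grown 10–12 days on filters with 5 μM dexamethasone, measured in Caco-2 transport buffer at 37° C under voltage clamp. Compound applied apically at 3 μM or 1-3-10 μM; 3 μM amiloride added at end. Short circuit current inhibition given as percent of amiloride effect or IC50.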
Consider `Nc1nc(N)c(C(=O)N[C@H]2CCC[N+](CCCc3ccc(OCC(=O)OCC4COCCN4)cc3)(CCCc3ccc(OCC(=O)OCC4COCCN4)cc3)C2)nc1Cl` (some centres unmarked) [Example 6.42], for which the IC50 was 0.112 µM.
Consider `CS(=O)(=O)CCCNC(=O)COc1ccc(CCC[N+]2(CCCc3ccc(OCC(=O)NCCCS(C)(=O)=O)cc3)CCC[C@H](NC(=O)c3nc(Cl)c(N)nc3N)C2)cc1` [Example 6.43], for which the IC50 amounted to 0.064 µM.
With `Nc1nc(N)c(C(=O)N[C@H]2CCC[N+](CCCc3ccc(OCC(=O)N4CCn5ccnc5C4)cc3)(CCCc3ccc(OCC(=O)N4CCn5ccnc5C4)cc3)C2)nc1Cl` [Example 6.44], the half-inhibitory concentration (IC50) was 0.088 µM.
Still for that read-out and setting: with `C[S+]([O-])CCNC(=O)COc1ccc(CCC[N+]2(CCCc3ccc(OCC(=O)NCC[S+](C)[O-])cc3)CCC[C@H](NC(=O)c3nc(Cl)c(N)nc3N)C2)cc1` (some centres unmarked) [Example 6.45] the figure was 0.039 µM.
With `CN1CCC(NC(=O)COc2ccc(CCC[N+]3(CCCc4ccc(OCC(=O)NC5CCN(C)C5=O)cc4)CCC[C@H](NC(=O)c4nc(Cl)c(N)nc4N)C3)cc2)C1=O` (some centres unmarked) [Example 6.46], the half-maximal inhibitory concentration (IC50) was 0.083 µM.
Still for that read-out and setting: with `CN1CCOC(CNC(=O)COc2ccc(CCC[N+]3(CCCc4ccc(OCC(=O)NCC5CN(C)CCO5)cc4)CCC[C@H](NC(=O)c4nc(Cl)c(N)nc4N)C3)cc2)C1` (some centres unmarked) [Example 6.47] the figure was 0.011 µM; with `CN(CCS(C)(=O)=O)C(=O)COc1ccc(CCC[N+]2(CCCc3ccc(OCC(=O)N(C)CCS(C)(=O)=O)cc3)CCC[C@H](NC(=O)c3nc(Cl)c(N)nc3N)C2)cc1` [Example 6.48], 0.085 µM; with `CO[C@H]1COC[C@@H]1NC(=O)COc1ccc(CCC[N+]2(CCCc3ccc(OCC(=O)N[C@H]4COC[C@@H]4OC)cc3)CCC[C@H](NC(=O)c3nc(Cl)c(N)nc3N)C2)cc1` [Example 6.49], 0.027 µM.
The same measure, in the same setting: the result for `Nc1nc(N)c(C(=O)N[C@H]2CCC[N+](CCCc3ccc(OCC(=O)NCCc4ccccn4)cc3)(CCCc3ccc(OCC(=O)NCCc4ccccn4)cc3)C2)nc1Cl` [Example 6.50] reads 0.006 µM; that for `Nc1nc(N)c(C(=O)N[C@H]2CCC[N+](CCCc3ccc(OCC(=O)NCCc4cccnc4)cc3)(CCCc3ccc(OCC(=O)NCCc4cccnc4)cc3)C2)nc1Cl` [Example 6.51], 0.005 µM; that for `Nc1nc(N)c(C(=O)N[C@H]2CCC[N+](CCCc3ccc(OCC(=O)NCCc4ccncc4)cc3)(CCCc3ccc(OCC(=O)NCCc4ccncc4)cc3)C2)nc1Cl` [Example 6.52], 0.004 µM.
Same read-out and setting: the result for `CN1CCN(C(=O)COc2ccc(CCC[N+]3(CCCc4ccc(OCC(=O)N5CCN(C)CC5)cc4)CCC[C@H](NC(=O)c4nc(Cl)c(N)nc4N)C3)cc2)CC1` [Example 6.53] reads 0.039 µM.
As for `Nc1nc(N)c(C(=O)N[C@H]2CCC[N+](CCCc3ccc(OCC(=O)N4CCN(CCO)CC4)cc3)(CCCc3ccc(OCC(=O)N4CCN(CCO)CC4)cc3)C2)nc1Cl` [Example 6.54], the half-maximal inhibitory concentration (IC50) worked out at 0.098 µM.
Same read-out and setting: with `Nc1nc(N)c(C(=O)N[C@H]2CCC[N+](CCCc3ccc(OCC(=O)NCCOCCO)cc3)(CCCc3ccc(OCC(=O)NCCOCCO)cc3)C2)nc1Cl` [Example 6.55] the figure was 0.025 µM; with `Nc1nc(N)c(C(=O)N[C@H]2CCC[N+](CCCc3ccc(OCC(=O)N4CCC(O)CC4)cc3)(CCCc3ccc(OCC(=O)N4CCC(O)CC4)cc3)C2)nc1Cl` [Example 6.56], 0.092 µM.
The same measure, in the same setting: the result for `Nc1nc(N)c(C(=O)N[C@H]2CCC[N+](CCCc3ccc(OCC(=O)NCc4cccnc4)cc3)(CCCc3ccc(OCC(=O)NCc4cccnc4)cc3)C2)nc1Cl` [Example 6.57] reads 0.004 µM; that for `Nc1nc(N)c(C(=O)N[C@H]2CCC[N+](CCCc3ccc(OCC(=O)N4CCOCC4)cc3)(CCCc3ccc(OCC(=O)N4CCOCC4)cc3)C2)nc1Cl` [Example 6.58], 0.072 µM.
On to `COCCNC(=O)COc1ccc(CCC[N+]2(CCCc3ccc(OCC(=O)NCCOC)cc3)CCC[C@H](NC(=O)c3nc(Cl)c(N)nc3N)C2)cc1` [Example 6.59], for which the IC50 is 0.012 µM.
Consider `COCCCNC(=O)COc1ccc(CCC[N+]2(CCCc3ccc(OCC(=O)NCCCOC)cc3)CCC[C@H](NC(=O)c3nc(Cl)c(N)nc3N)C2)cc1` [Example 6.60], for which the concentration for half-maximal inhibition (IC50) was 0.007 µM.
The same measure, in the same setting: with `CN(CCO)C(=O)COc1ccc(CCC[N+]2(CCCc3ccc(OCC(=O)N(C)CCO)cc3)CCC[C@H](NC(=O)c3nc(Cl)c(N)nc3N)C2)cc1` [Example 6.61] the figure was 0.108 µM; with `Nc1nc(N)c(C(=O)N[C@H]2CCC[N+](CCCc3ccc(OCC(=O)NCc4ccccn4)cc3)(CCCc3ccc(OCC(=O)NCc4ccccn4)cc3)C2)nc1Cl` [Example 6.62], 0.005 µM; with `Nc1nc(N)c(C(=O)N[C@H]2CCC[N+](CCCc3ccc(OCC(=O)NCCN4CCOCC4)cc3)(CCCc3ccc(OCC(=O)NCCN4CCOCC4)cc3)C2)nc1Cl` [Example 6.63], 0.042 µM.
`Nc1nc(N)c(C(=O)N[C@H]2CCC[N+](CCCc3ccc(OCC(=O)NCc4ccncc4)cc3)(CCCc3ccc(OCC(=O)NCc4ccncc4)cc3)C2)nc1Cl` [Example 6.64]: the IC50 amounted to 0.004 µM.
`CN(CC#N)C(=O)COc1ccc(CCC[N+]2(CCCc3ccc(OCC(=O)N(C)CC#N)cc3)CCC[C@H](NC(=O)c3nc(Cl)c(N)nc3N)C2)cc1` [Example 6.65]: the 50% inhibitory concentration (IC50) stood at 0.094 µM.
On the same count and under the same terms, the result for `Nc1nc(N)c(C(=O)N[C@H]2CCC[N+](CCCc3ccc(OCC(=O)N(CCO)CCO)cc3)(CCCc3ccc(OCC(=O)N(CCO)CCO)cc3)C2)nc1Cl` [Example 6.66] reads 0.121 µM; that for `CP(C)(=O)CNC(=O)COc1ccc(CCC[N+]2(CCCc3ccc(OCC(=O)NCP(C)(C)=O)cc3)CCC[C@H](NC(=O)c3nc(Cl)c(N)nc3N)C2)cc1` [Example 6.67], 0.131 µM.

The same test, now with this note: Ussing chamber, mouse kidney M-1 cells, short circuit current; unit inferred; read-out: IC50.
As to `COC(=O)C[C@@H](C[N+](C)(CCCc1ccc(OC)cc1)CCCc1ccc(OC)cc1)NC(=O)c1nc(Cl)c(N)nc1N` [Example 7, {(S)-2-[(3,5-Diamino-6-chloro-pyrazine-2-carbonyl)-amino]-3-methoxycarbonyl-propyl}-bis-[3-(4-methoxy-phenyl)-propyl]-methyl-ammonium chloride], the half-maximal inhibitory concentration (IC50) amounted to 0.021 µM.
With `COC(=O)C[C@H](C[N+](C)(CCCc1ccc(OC)cc1)CCCc1ccc(OC)cc1)NC(=O)c1nc(Cl)c(N)nc1N` [Example 7.1, {(R)-2-[(3,5-Diamino-6-chloro-pyrazine-2-carbonyl)-amino]-3-methoxycarbonyl-propyl}-bis-[3-(4-methoxy-phenyl)-propyl]-methyl-ammonium chloride], the half-inhibitory concentration (IC50) stood at 1.3 µM.

Staying with this test, now noted: Ussing chamber, mouse kidney M-1 cells, short circuit current; value printed in the example text with μM; read-out: IC50.
In the case of `COc1ccc(CCC[N+](C)(CCCc2ccc(OC)cc2)C[C@H](CC(=O)O)NC(=O)c2nc(Cl)c(N)nc2N)cc1` [Example 7.2, {(S)-3-Carboxy-2-[(3,5-diamino-6-chloro-pyrazine-2-carbonyl)-amino]-propyl}-bis-[3-(4-methoxy-phenyl)-propyl]-methyl-ammonium], the IC50 amounted to 1.38 µM.

Broadly, the IC50 is the concentration that inhibits the measured activity by half.
